Data from paper PMC3242765, “Inhibitors of Alphavirus Entry and Replication Identified with a Stable Chikungunya Replicon Cell Line and Virus-Based Assays” (PLoS ONE, 2011).
Entries after “also recorded” stand apart in the source; their conditions may differ.

Legend:
SFV-Rluc [1] = test: microbe, parasite or virus in culture; conditions: Semliki Forest virus, BHK; for IC50: 14 h, read-out: SFV IC50
BHK-CHIKV-NCT cells = test: Cell viability ATP assay, BHK-CHIKV-NCT cells; type: cell-based, hamster; conditions: Mesocricetus auratus, 48 h, read-out: Cell viability IC50, ATP assay, 48 h exposure of BHK-CHIKV-NCT cells, up to 200 µM
BHK cells = test: Cell viability ATP assay, BHK cells; type: cell-based, hamster; conditions: Mesocricetus auratus, BHK, 48 h, read-out: Cell viability IC50
SFV [2] = test: Viral yield analysis using a plaque assay; type: cell-based, Semliki Forest virus (SFV); conditions: for SFV yield: BHK cells, MOI 0.01, 50 µM compound, 16 h, untreated control 1.4×10^9 PFU/ml
SFV [3] = test: CPE reduction assay, SFV (WST-1); type: cell-based, Semliki Forest virus (SFV); conditions: Semliki Forest virus, BHK, 22 h, read-out: SFV IC50 (CPE reduction)
CHIKV [4] = conditions: cited from earlier work
SINV = test: CPE reduction assay, SINV (WST-1); type: cell-based, Sindbis virus (SINV); conditions: Sindbis virus, BHK, 24 h, read-out: SINV IC50 (CPE reduction)
CHIKV-Rluc = test: microbe, parasite or virus in culture; type: cell-based, Chikungunya virus (CHIKV); conditions: Chikungunya virus, BHK, 16 h, read-out: CHIKV-Rluc IC50
SFV-Rluc [5] = test system: SFV-Rluc
SFVts9-Rluc = type: cell-based, Semliki Forest virus (SFV)
CHIKV [6] = conditions: 2006 La Réunion outbreak; cited from earlier work
CHIKV replicon = test: microbe, parasite or virus in culture; type: cell-based, Chikungunya virus (CHIKV)

Row | Compound | IC50 (SFV-Rluc [1]) [µM] | inhibition at 200 µM (SFV-Rluc [1]; read-out: Inhibition of SFV-Rluc) [%] | IC50 (BHK-CHIKV-NCT cells) [µM] | IC50 (BHK cells) [µM] | SFV yield (SFV [2]) | IC50 (SFV [3]) [µM] | IC50 (CHIKV [4]; approximate conversion of 0.2 µg/ml, read-out: previously reported potency for CHIKV, converted) [µM] | previously reported potency for CHIKV (CHIKV [4]) [µg/mL] | IC50 (SINV) [µM] | IC50 (CHIKV-Rluc) [µM] | SFV replication % left (surviving fraction, remaining percentage of SFV replication) (SFV-Rluc [5]) [%] | SI (selectivity index) (SFV-Rluc [5]) | Decrease of SFV titer versus untreated control (SFV [2]; 50 µM compound, MOI 0.01, 16 h) | Effect on Rluc signal of SFVts9-Rluc (entry) (SFVts9-Rluc) | Clinical efficacy in acute CHIKV viremia (duration of viremia, severity and duration of symptoms) (CHIKV [6]) | CHIKV replicon % left (CHIKV replicon) [%] | Suppression of CHIKV replicon (in words) (CHIKV replicon)
1 | O=c1cnn([C@@H]2O[C@H](CO)[C@@H](O)[C@H]2O)c(=O)[nH]1 [6-Azauridine] | > 200 | 40 | > 200 | > 200 | 9.1×10^7 PFU/ml | > 200 | ~0.8 | 0.2 | > 200 | 29.7 |  |  |  |  |  |  | 
2 | CCN(CC)CCCC(C)Nc1ccnc2cc(Cl)ccc12 (stereo not shown) [Chloroquine] | 13.4 |  |  | > 200 | 3.3×10^7 PFU/ml | 8.2 |  |  | 11.3 |  | 12.2 | >14.9 | two orders of magnitude | dose-dependent inhibition of Rluc signal | failed to show any benefits | 104.4 | no suppression of replicon propagation; also recorded: has no effect on CHIKV replicon
